Experiment [1] has as its system overactive bladder induced by acetic acid. Nature of the experiment: Confirmation test of elongation action of micturition interval of overactive bladder induced by acetic acid. It is filed as in vivo. Particulars: Rattus norvegicus, iv; urethane-anesthetized female SD rats, 1 mg/kg/mL via femoral vein, intravesical 0.25% acetic acid; interval after/before administration x100. From the text: Further, TRPM8 inhibitory activity can be evaluated by the efficacy inhibiting the wet-dog shake action which is induced by the administration of Icilin, TRPM8 agonist. Furthermore, an effect on overactive bladder (OAB) can be evaluated by an elongation of micturition interval against overactive bladder induced by acetic acid in accordance with a similar method described in J. Urol., 2001, 166, 1142. Confirmation Test of Elongation Action of Micturition Interval of Overactive Bladder Induced by Acetic Acid Urethane (sigma) was dissolved into pure water by 25% w/v, and female SD rats were anesthetized with 1.25 g/kg urethane by subcutaneous administration. Cannulae were placed in femoral vein and bladder, and the bladder cannula was connected to both a syringe pump and a pressure transducer. Detrusor overactivity was induced by intravesical infusion of 0.25% acetic acid in saline at a rate of 3.6 mL/h, and intravesical pressure was monitored via pressure transducer concurrently. Test compounds were dissolved into a mixture of dimethylacetamide and saline (20:80), and were administered via, the femoral vein. Elongation of micturition interval (%) by test compound was calculated from the following formula: [an average of the three micturition interval after administration/an average of the three micturition interval before administration]×100.

The next experiment addresses T1, TRPM8 (Rattus norvegicus, UniProt Q8R455).
T1 construct: from tissue; host or cells: whole animal, female SD rats (in vivo)
Nature of the experiment: Confirmation test of inhibitory effects on icilin-induced wet-dog shakes. It is filed as in vivo. The following applies: female SD rats, icilin 1 mg/kg i.p. 1 hour after dosing, shakes counted for 5 minutes. In short, it runs like this: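 Female SD rats received compounds orally at 0.3 to 10 mg/kg in 5% dimethylacetamide/0.5% methylcellulose. One hour later, icilin (1 mg/kg, i.p., in PEG 400) was given, and wet-dog shakes were counted for 5 min starting 5 min after icilin. Percent inhibition was calculated against vehicle-treated rats.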

Molecules are shown by their SMILES.

T1 sequence (Q8R455 whole entry): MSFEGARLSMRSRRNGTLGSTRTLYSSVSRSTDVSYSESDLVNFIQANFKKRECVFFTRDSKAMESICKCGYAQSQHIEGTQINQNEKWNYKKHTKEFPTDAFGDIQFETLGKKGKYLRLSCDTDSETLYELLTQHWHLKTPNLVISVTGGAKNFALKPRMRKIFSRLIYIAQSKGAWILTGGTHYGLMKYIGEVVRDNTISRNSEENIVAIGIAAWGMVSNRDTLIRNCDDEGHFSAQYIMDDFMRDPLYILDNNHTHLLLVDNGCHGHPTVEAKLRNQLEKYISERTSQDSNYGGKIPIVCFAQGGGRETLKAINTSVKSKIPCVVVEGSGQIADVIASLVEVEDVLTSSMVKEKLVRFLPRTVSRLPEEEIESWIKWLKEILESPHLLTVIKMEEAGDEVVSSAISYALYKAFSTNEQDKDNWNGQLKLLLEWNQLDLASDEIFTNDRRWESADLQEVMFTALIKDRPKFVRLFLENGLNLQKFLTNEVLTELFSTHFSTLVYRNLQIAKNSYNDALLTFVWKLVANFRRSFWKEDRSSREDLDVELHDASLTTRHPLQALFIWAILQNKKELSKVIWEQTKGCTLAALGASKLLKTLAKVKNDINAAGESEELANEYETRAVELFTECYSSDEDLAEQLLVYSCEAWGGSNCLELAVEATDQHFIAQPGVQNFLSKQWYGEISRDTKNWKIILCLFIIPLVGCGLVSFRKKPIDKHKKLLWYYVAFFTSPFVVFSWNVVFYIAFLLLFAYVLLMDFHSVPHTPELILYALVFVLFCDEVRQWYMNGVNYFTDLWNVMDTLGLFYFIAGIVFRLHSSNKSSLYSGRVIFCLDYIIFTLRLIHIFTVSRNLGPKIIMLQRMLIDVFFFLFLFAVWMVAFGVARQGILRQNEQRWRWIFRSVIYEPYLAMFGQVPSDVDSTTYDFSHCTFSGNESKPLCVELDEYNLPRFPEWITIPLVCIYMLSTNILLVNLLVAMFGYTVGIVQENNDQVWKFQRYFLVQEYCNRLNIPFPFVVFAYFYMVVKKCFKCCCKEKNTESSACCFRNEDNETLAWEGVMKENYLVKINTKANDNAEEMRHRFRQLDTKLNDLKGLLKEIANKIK

In the case of `O=C(N[C@H](Cc1ccccn1)[C@H](O)CO)c1cccc(F)c1-c1cc(-c2ccc(F)cc2)[nH]n1` [Example 1-139], the response vs control in vivo at 1 mg/kg in experiment [1] was 163%.
As for `O=C(N[C@H](Cc1ccccn1)[C@H](F)CO)c1cccc(Cl)c1-c1cc(-c2ccc(F)cc2)[nH]n1` [Example 43-27], the “% inhibition of Wet-Dog Shake” value at TRPM8 (oral dose 3 mg/kg) was 80%. In experiment [1], this compound came in with a response vs control in vivo at 1 mg/kg of 185%.
In the case of `O=C(N[C@H](Cc1ccccn1)[C@H](O)CO)c1ccccc1-c1n[nH]c(-c2ccc(F)cc2)c1F` [Example 1-172], the “% inhibition of Wet-Dog Shake” value at TRPM8 (oral dose 1 mg/kg) worked out at 100%. This compound also yielded a response vs control in vivo at 1 mg/kg in experiment [1] of 194%.
In the same order, the values of `O=C(N[C@H](Cn1cccn1)[C@H](F)CO)c1cccc(F)c1-c1cc(-c2ccc(F)cc2)[nH]n1` [Example 50-6] are 54% and 197%.
Take `O=C(N[C@H](Cn1nccn1)C(F)(F)CO)c1cccc(F)c1-c1n[nH]c(-c2ccc(F)cc2)c1F` [Example 56-1, N-[(2R)-3,3-Difluoro-4-hydroxy-1-(2H-1,2,3-triazol-2-yl)butan-2-yl]-3-fluoro-2-[4-fluoro-5-(4-fluorophenyl)-1H-pyrazol-3-yl]benzamide]: at TRPM8 (oral dose 0.3 mg/kg), the “% inhibition of Wet-Dog Shake” value turned out to be 91%. This compound had a response vs control in vivo at 1 mg/kg in experiment [1] of 150%.
Regarding `O=C(N[C@H](Cn1cccn1)C(F)(F)CO)c1cccc(F)c1-c1cc(-c2ccc(F)cc2)[nH]n1` [Example 50-1, N-[(2R)-3,3-Difluoro-4-hydroxy-1-(1H-pyrazol-1-yl)butan-2-yl]-3-fluoro-2-[5-(4-fluorophenyl)-1H-pyrazol-3-yl]benzamide], the “% inhibition of Wet-Dog Shake” value on TRPM8 (oral dose 1 mg/kg) was found to be 92%. In experiment [1], this compound gave a response vs control in vivo at 1 mg/kg of 217%.
`NC(=O)[C@H](Cc1ccccc1)NC(=O)c1ccccc1-c1cc(-c2ccccc2)[nH]n1` [Example 1-14] displayed a response vs control in vivo at 1 mg/kg in experiment [1] of 138%.
As to `CO[C@H](CO)[C@@H](Cc1ccccn1)NC(=O)c1cccc(F)c1-c1cc(-c2ccc(Cl)cc2)[nH]n1` [Example 43-1, 2-[5-(4-Chlorophenyl)-1H-pyrazol-3-yl]-3-fluoro-N-[(2R,3 S)-4-hydroxy-3-methoxy-1-(pyridin-2-yl)butan-2-yl]benzamide], on TRPM8 (oral dose 1 mg/kg), the “% inhibition of Wet-Dog Shake” value is 90%. In experiment [1], this compound gave a response vs control in vivo at 1 mg/kg of 156%.
As for `O=C(N[C@@H](CO)Cc1ccccn1)c1ccccc1-c1cc(-c2ccc(F)cc2)[nH]n1` [Example 1-58], the “% inhibition of Wet-Dog Shake” value at TRPM8 (oral dose 3 mg/kg) amounted to 86%. This compound also returned a response vs control in vivo at 1 mg/kg in experiment [1] of 159%.
Consider `O=C(N[C@@H](CCO)Cc1ccccn1)c1cccc(F)c1-c1cc(-c2ccc(F)cc2)[nH]n1` [Example 1-1, 3-Fluoro-2-[5-(4-fluorophenyl)-1H-pyrazol-3-yl]-N-[(2R)-4-hydroxy-1-(pyridin-2-yl)butan-2-yl]benzamide], for which the “% inhibition of Wet-Dog Shake” value on TRPM8 (oral dose 1 mg/kg) stood at 82%. The response vs control in vivo at 1 mg/kg in experiment [1] is 169%.
With `O=C(N[C@@H](CCO)Cc1ncccc1F)c1cccc(F)c1-c1cc(-c2ccc(F)cc2)[nH]n1` [Example 1-125], the “% inhibition of Wet-Dog Shake” value at TRPM8 (oral dose 1 mg/kg) turned out to be 56%. Further, in experiment [1], the response vs control in vivo at 1 mg/kg came to 223%.
Turning to `O=C(N[C@H](Cn1nccn1)C(F)(F)CO)c1cccc(F)c1-c1cc(-c2ccc(F)cc2)[nH]n1` [Example 50-12, N-[(2R)-3,3-Difluoro-4-hydroxy-1-(2H-1,2,3-triazol-2-yl)butan-2-yl]-3-fluoro-2-[5-(4-fluorophenyl)-1H-pyrazol-3-yl]benzamide], the “% inhibition of Wet-Dog Shake” value on TRPM8 (oral dose 0.3 mg/kg) came to 99%. The compound also showed a response vs control in vivo at 1 mg/kg in experiment [1] of 191%.
With `CO[C@H](CO)[C@@H](Cc1ncccn1)NC(=O)c1ccccc1-c1cc(-c2ccc(F)cc2)[nH]n1` [Example 1-238], the “% inhibition of Wet-Dog Shake” value on TRPM8 (oral dose 1 mg/kg) is 82%. The compound also showed a response vs control in vivo at 1 mg/kg in experiment [1] of 136%.
For `CO[C@H](CO)[C@@H](Cn1cccn1)NC(=O)c1cccc(F)c1-c1n[nH]c(-c2ccc(F)cc2)c1F` [Example 27-25], in that order: 90% and 167%.
In the same order, the values of `CO[C@H](CO)[C@@H](Cn1cccn1)NC(=O)c1ccccc1-c1cc(-c2ccc(F)cc2)[nH]n1` [Example 27-7] are 88% and 176%.
Take `O=C(N[C@H](Cn1nccn1)[C@H](F)CO)c1cccc(F)c1-c1cc(-c2ccc(F)cc2)[nH]n1` [Example 43-42]: on TRPM8 (oral dose 1 mg/kg), the “% inhibition of Wet-Dog Shake” value is given as 100%. In experiment [1], the response vs control in vivo at 1 mg/kg is 158%.
On to `CO[C@H](CO)[C@@H](Cn1cccn1)NC(=O)c1cccc(F)c1-c1cc(-c2ccc(F)cc2)[nH]n1` [Example 27-1, 3-Fluoro-2-[5-(4-fluorophenyl)-1H-pyrazol-3-yl]-N-[(2R,3S)-4-hydroxy-3-methoxy-1-(1H-pyrazol-1-yl)butan-2-yl]benzamide], for which, on TRPM8 (oral dose 1 mg/kg), the “% inhibition of Wet-Dog Shake” value stood at 84%. This compound came in with a response vs control in vivo at 1 mg/kg in experiment [1] of 158%.
On to `CO[C@H](CO)[C@@H](Cn1cccn1)NC(=O)c1cccc(F)c1-c1cc(-c2ccc(Cl)cc2)[nH]n1` [Example 27-14], for which, at TRPM8 (oral dose 1 mg/kg), the “% inhibition of Wet-Dog Shake” value is 51%. This compound also came in with a response vs control in vivo at 1 mg/kg in experiment [1] of 195%.
Regarding `CC(c1ccccn1)[C@@H](NC(=O)c1cccc(F)c1-c1cc(-c2ccc(Cl)cc2)[nH]n1)[C@H](O)CO` (some centres unmarked) [Example 54-16], the “% inhibition of Wet-Dog Shake” value on TRPM8 (oral dose 3 mg/kg) is 86%. Moreover, in experiment [1], the response vs control in vivo at 1 mg/kg is 132%.
As for `CO[C@H](CO)[C@@H](Cc1ccccn1)NC(=O)c1cccc(F)c1-c1cc(-c2ccc(F)cc2)[nH]n1` [Example 43-3], on TRPM8 (oral dose 0.3 mg/kg), the “% inhibition of Wet-Dog Shake” value is listed as 58%. In experiment [1], the response vs control in vivo at 1 mg/kg turned out to be 158%.
With `O=C(N[C@@H](CO)Cc1ccccn1)c1cccc(F)c1-c1cc(-c2ccc(F)cc2)[nH]n1` [Example 1-84], the “% inhibition of Wet-Dog Shake” value at TRPM8 (oral dose 1 mg/kg) came out at 59%. Besides, the response vs control in vivo at 1 mg/kg in experiment [1] was determined as 183%.
On to `CO[C@H](CO)[C@@H](Cc1ncccn1)NC(=O)c1cccc(F)c1-c1cc(-c2ccc(F)cc2)[nH]n1` [Example 1-227], for which the “% inhibition of Wet-Dog Shake” value at TRPM8 (oral dose 1 mg/kg) is 66%. The response vs control in vivo at 1 mg/kg in experiment [1] was found to be 193%.
As to `O=C(N[C@H](Cn1nccn1)[C@H](F)CO)c1cccc(F)c1-c1n[nH]c(-c2ccc(F)cc2)c1F` [Example 43-43], on TRPM8 (oral dose 0.3 mg/kg), the “% inhibition of Wet-Dog Shake” value came to 93%. The same compound returned a response vs control in vivo at 1 mg/kg in experiment [1] of 172%.

The values above are taken from patent US10287251B2, “Pyrazole derivative or pharmaceutically acceptable salt thereof” (KISSEI PHARMACEUTICAL CO., LTD., priority 2015, dated 2019).
